# Data: patent US20180303853A1, “COMPOSITIONS AND METHODS FOR TREATING BACTERIAL INFECTIONS USING CEFTAROLINE” (priority 2017, published 2018)
# Columns and labels:
# [1] = test system: community-acquired pneumonia (CAP); assay: Example 5 Phase 3 study, ceftaroline vs ceftriaxone with adjunctive clarithromycin in CAP, efficacy; assay type: in vivo, human
# From the text: The secondary objective of the study was to evaluate the following: the clinical response at end-of-therapy (EOT); the microbiological favorable outcome rate at TOC; the overall (clinical and radiographic) success rate at TOC; the clinical and microbiological response by pathogen at TOC; clinical relapse at late follow-up (LFU); microbiological reinfection/recurrence at LFU; and safety.
# The primary efficacy outcome measures were the per-subject clinical cure rate at TOC in the CE and MITTE Populations. Subjects were considered clinically cured at TOC if they had total resolution of all signs and symptoms of the baseline infection, or improvement of the infection such that no further antimicrobial therapy was necessary.
# Non-inferiority was concluded if the lower limit of the 95% CI was higher than −10%.
# [2] = human, in vivo
# [3] = human, in vivo; remark: listed apart in the source
# Protocol: (§2) Study-Drug: Ceftaroline fosamil was administered in two consecutive 300 mg intravenous (IV) infusions over 30 minutes, every 12 hours (q12h). The 600-mg dose of ceftaroline fosamil infused over 60 minutes was split into two infusions in order to maintain the blind. For subjects with moderate renal impairment (30 ml/min<CrCl≤50 ml/min), as estimated by the Cockroft-Gault formula, unblinded pharmacy staff or unblinded study staff could adjust the dose of ceftaroline fosamil to two consecutive 200 mg infusions and readjust dose to two 300 mg infusions when renal function improved (CrCl>50 mL/min). The duration of treatment was between 5 to 7 days.
# (§3) All subjects who received any amount of study drug were included in the safety analysis. Safety measures included monitoring for adverse events (AE) up to TOC and serious adverse events (SAE) through LFU; recording vital signs, physical examination, electrocardiogram (ECG), and clinical laboratory findings (clinical chemistry, hematology, and urinalysis), at prespecified times throughout the study.
# [4] = test system: human plasma protein; assay type: in vitro ADME
# [5] = test system: CYP1A1, CYP1A2, CYP2A6, CYP2B6, CYP2C8, CYP2C9, CYP2C19, CYP2D6, CYP2E1 and CYP3A4; assay: Cytochrome P450 inhibition in human liver microsomes; assay type: in vitro ADME; settings: microsomes
# [6] = human, microsomes
# [7] = test system: S. aureus; assay: Example 5 CAP study, outcome by baseline pathogen; assay type: in vivo
# From the text: (§1) Per-pathogen clinical cure rate and favorable microbiological outcome rate at TOC in the mMITTE and ME Populations;
# [8] = test system: H. parainfluenzae; assay: Example 5 CAP study, outcome by baseline pathogen; assay type: in vivo
# From the text: as §1
# [9] = test system: S. pneumoniae; assay: Example 5 CAP study, outcome by baseline pathogen; assay type: in vivo
# From the text: as §1
# [10] = test system: E. coli; assay: Example 5 CAP study, outcome by baseline pathogen; assay type: in vivo
# From the text: as §1
# [11] = test system: H. influenzae; assay: Example 5 CAP study, outcome by baseline pathogen; assay type: in vivo
# From the text: as §1
# [12] = test system: Community-Acquired Bacterial Pneumonia (CABP); assay: Two Phase 3 studies in CABP, clinical cure at TOC (single and integrated/combined); assay type: in vivo, human; settings: TOC; for Combined clinical cure rate: combined data of the two CAP studies; for Weighted treatment difference (95% CI), ceftaroline versus ceftriaxone: combined data
# Protocol: In both treatment groups of CABP Study 1, two doses of oral clarithromycin (500 mg q12 h), were administered as adjunctive therapy starting on Study Day 1. No adjunctive macrolide therapy was used in CABP Study 2. Patients with new or progressive pulmonary infiltrate(s) on chest radiography and clinical signs and symptoms consistent with CABP with the need for hospitalization and IV therapy were enrolled in the studies. Treatment duration was 5 to 7 days. A switch to oral therapy was not allowed. The Modified Intent-to-Treat Efficacy (MITTE) population, included all patients who received any amount of study drug according to their randomized, treatment group and were in PORT (Pneumonia Outcomes Research Team) Risk Class III or IV.
# The primary efficacy endpoint was the clinical response at the Test of Cure (TOC) visit in the co-primary Ce and MITTE populations (Table 4).
# [13] = test system: MDRSP; assay: Example 4 CAP study, outcome by baseline pathogen; assay type: in vivo, S. pneumoniae
# From the text: as §1
# [14] = human, in vivo; remark: listed apart in the source
# [15] = Example 4 CAP study, safety
# Protocol: as §2, §3
# [16] = human, in vivo; remark: listed apart in the source
# Protocol: Study drug: Ceftaroline fosamil was administered in two consecutive 300 mg intravenous (IV) infusions over 30 minutes, every 12 hours (q12h). The 600-mg dose of ceftaroline fosamil infused over 60 minutes was split into two infusions in order to maintain the blind. For subjects with moderate renal impairment (30 mL/min<CrCl≤50 mL/min), as estimated by the Cockroft-Gault formula, unblinded pharmacy staff or unblinded study staff could adjust the dose of ceftaroline fosamil to two consecutive 200 mg infusions and readjust dose to two 300 mg infusions when renal function improved (CrCl>50 mL/min). The duration of treatment was between 5 to 7 days.
# All subjects initially received two doses (500 mg every 12 hours) of oral adjunctive therapy with clarithromycin following randomization.
# All subjects who received any amount of study drug were included in the safety analysis. Safety measures included monitoring for adverse events (AE) up to TOC and serious adverse events (SAE) through LFU; recording vital signs, physical examination, electrocardiogram (ECG), and clinical laboratory findings (clinical chemistry, hematology, and urinalysis); at prespecified times throughout the study.
# [17] = test system: S. aureus; assay: Example 4 CAP study, outcome by baseline pathogen; assay type: in vivo
# From the text: as §1
# [18] = test system: H. parainfluenzae; assay: Example 4 CAP study, outcome by baseline pathogen; assay type: in vivo
# From the text: as §1
# [19] = test system: S. pneumoniae; assay: Example 4 CAP study, outcome by baseline pathogen; assay type: in vivo
# From the text: as §1
# [20] = test system: H. influenzae; assay: Example 4 CAP study, outcome by baseline pathogen; assay type: in vivo
# From the text: as §1
# [21] = test system: K. pneumoniae; assay: Example 4 CAP study, outcome by baseline pathogen; assay type: in vivo
# From the text: as §1
# [22] = Excretion after single IV dose of radiolabeled ceftaroline fosamil in healthy male adults; assay type: in vivo, human; settings: in vivo
# Protocol: Following administration of a single 600 mg IV dose of radiolabeled ceftaroline fosamil to healthy male adults, approximately 87% of radioactivity was recovered in urine and 6% in feces. The majority of the radioactivity (˜90%) was recovered within 48 hours. Of the radioactivity recovered in urine, approximately 64% was excreted as ceftaroline and approximately 2% as ceftaroline-M-1.
# [23] = clinical; settings: human, in vivo
smiles,measurement,setting,value
"CCO/N=C(\C(=O)N[C@@H]1C(=O)N2C(C(=O)[O-])=C(Sc3nc(-c4cc[n+](C)cc4)cs3)CS[C@H]12)c1nsc(N)n1 [Ceftaroline, ceftaroline]","Difference (ceftaroline minus ceftriaxone), Clinical Cure Rate at EOT","[1]; Example 5, CE",7.6%
same,"Difference (ceftaroline minus ceftriaxone), Clinical Success at TOC","[1]; Example 5, CE",8.4%
same,Clinical Success at the TOC Visit,"[1]; Example 5, CE population",194 (86.6) %
same,Per-subject Clinical Cure Rate at the EOT Visit,"[1]; Example 5, CE population",197 (87.9) %
same,"Difference (ceftaroline minus ceftriaxone), Favorable Microbiological Outcome at TOC","[1]; Example 5, ME",11.0%
same,Favorable Microbiological Outcome at the TOC Visit,"[1]; Example 5, ME population",62 (89.9) %
same,"Difference (ceftaroline minus ceftriaxone), Clinical Cure Rate at EOT","[1]; Example 5, MITTE",6.3%
same,"Difference (ceftaroline minus ceftriaxone), Clinical Success at TOC","[1]; Example 5, MITTE",6.2%
same,Clinical Success at the TOC Visit,"[1]; Example 5, MITTE population",244 (83.8) %
same,Per-subject Clinical Cure Rate at the EOT Visit,"[1]; Example 5, MITTE population",253 (86.9) %
same,"Difference (ceftaroline minus ceftriaxone), Favorable Microbiological Outcome at TOC","[1]; Example 5, mMITTE",9.3%
same,Favorable Microbiological Outcome at the TOC Visit,"[1]; Example 5, mMITTE population",66 (88.0) %
same,"change in exposure (Cmax and AUC) with concomitant CYP450 inhibitors, inducers, substrates",[2],did nor identify any clinically relevant increases
same,Adverse event: COPD,[3],8 (2.5) %
same,Adverse event: Diarrhea,[3],12 (3.8) %
same,Adverse event: Head ache,[3],11 (3.5) %
same,Adverse event: Pleural effusion,[3],4 (1.3) %
same,Adverse event: Pneumonia,[3],8 (2.5) %
same,study-drug-related TEAE: alanine aminotransferase increased,[3],0.3%
same,study-drug-related TEAE: blood creatinine phosphokinase increased,[3],1.3%
same,study-drug-related TEAE: heartache,[3],0.6%
same,subjects with any study-drug-related TEAEs,[3],12.4%
same,binding to human plasma protein,[4],approximately 20%
same,inhibition of major cytochrome P450 isoenzymes,[5],neither ceftaroline fosamil nor ceftaroline inhibits
same,metabolic turnover,[6],< 12%
same,Favorable Microbiological Outcome at TOC by Baseline Pathogen,"[7]; Example 5, ME",8/10 (80.0)
same,Clinical Cure Rate at the TOC Visit by Baseline Pathogen,"[7]; Example 5, ME Population",8/10 (80.0)
same,Favorable Microbiological Outcome at TOC by Baseline Pathogen,"[8]; Example 5, ME",7/7 (100.0)
same,Clinical Cure Rate at the TOC Visit by Baseline Pathogen,"[8]; Example 5, ME Population",7/7 (100.0)
same,Favorable Microbiological Outcome at TOC by Baseline Pathogen,"[9]; Example 5, ME",21/24 (87.5)
same,Clinical Cure Rate at the TOC Visit by Baseline Pathogen,"[9]; Example 5, ME Population",21/24 (87.5)
same,Favorable Microbiological Outcome at TOC by Baseline Pathogen,"[10]; Example 5, ME",8/8 (100.0)
same,Clinical Cure Rate at the TOC Visit by Baseline Pathogen,"[10]; Example 5, ME Population",8/8 (100.0)
same,Favorable Microbiological Outcome at TOC by Baseline Pathogen,"[11]; Example 5, ME",2/3 (66.7)
same,Clinical Cure Rate at the TOC Visit by Baseline Pathogen,"[11]; Example 5, ME Population",2/3 (66.7)
same,Combined clinical cure rate,[12]; CE,387/459 (84.3) %
same,Combined clinical cure rate,[12]; ME,131/154 (85.1) %
same,Combined clinical cure rate,[12]; MITTE,479/580 (82.6) %
same,Combined clinical cure rate,[12]; mMITTE,138/165 (83.6) %
same,"Weighted treatment difference (95% CI), ceftaroline versus ceftriaxone",[12]; CE,"6.7 (1.6, 11.8) %"
same,"Weighted treatment difference (95% CI), ceftaroline versus ceftriaxone","[12]; CE, listed as ceftaroline",6.7%
same,"Weighted treatment difference (95% CI), ceftaroline versus ceftriaxone",[12]; ME,"9.7 (0.7, 18.8) %"
same,"Weighted treatment difference (95% CI), ceftaroline versus ceftriaxone","[12]; ME, listed as ceftaroline",9.7%
same,"Weighted treatment difference (95% CI), ceftaroline versus ceftriaxone",[12]; MITTE,"6.0 (1.4, 10.7) %"
same,"Weighted treatment difference (95% CI), ceftaroline versus ceftriaxone",[12]; mMITTE,"8.7 (−0.0, 17.4) %"
same,"Weighted treatment difference (95% CI), ceftaroline versus ceftriaxone","[12]; mMITTE, listed as ceftaroline",8.7%
same,Favorable Microbiological Outcome at TOC by Baseline Pathogen,"[13]; Example 4, ME",2/2 (100.0)
same,Clinical Cure Rate at the TOC Visit by Baseline Pathogen,"[13]; Example 4, ME Population",2/2 (100.0)
same,CL/Fm,[14],9.60 (1.40) L/h
same,dose dependence of Cmax and AUC,[14],increased approximately in proportion to increases in dose
same,t1/2,[14],2.66 (0.40) h
same,hemolytic anemia,[15],No evidence of hemolytic anemia
same,incidence of deaths,[15],2.9%
same,Adverse event: Constipation,[16],7 (2.3) %
same,TEAEs assessed as drug related by the Investigators,[16],17.1%
same,study-drug-related TEAE: headache,[16],1.0%
same,study-drug-related TEAE: hepatic enzyme increased,[16],0.3%
same,study-drug-related TEAE: sinus bradychardia,[16],1.0%
same,Favorable Microbiological Outcome at TOC by Baseline Pathogen,"[17]; Example 4, ME",11/15 (73.3)
same,Clinical Cure Rate at the TOC Visit by Baseline Pathogen,"[17]; Example 4, ME Population",10/15 (66.7)
same,Favorable Microbiological Outcome at TOC by Baseline Pathogen,"[18]; Example 4, ME",9/9 (100.0)
same,Clinical Cure Rate at the TOC Visit by Baseline Pathogen,"[18]; Example 4, ME Population",9/9 (100.0)
same,Favorable Microbiological Outcome at TOC by Baseline Pathogen,"[19]; Example 4, ME",35/39 (89.7)
same,Clinical Cure Rate at the TOC Visit by Baseline Pathogen,"[19]; Example 4, ME Population",33/39 (84.6)
same,Favorable Microbiological Outcome at TOC by Baseline Pathogen,"[20]; Example 4, ME",13/15 (86.7)
same,Clinical Cure Rate at the TOC Visit by Baseline Pathogen,"[20]; Example 4, ME Population",13/15 (86.7)
same,Favorable Microbiological Outcome at TOC by Baseline Pathogen,"[21]; Example 4, ME",6/6 (100.0)
same,Clinical Cure Rate at the TOC Visit by Baseline Pathogen,"[21]; Example 4, ME Population",6/6 (100.0)
same,route of elimination,[22],primarily eliminated by the kidneys
same,clearance,[23]; CL/Fm,160 mL/min
same,half-life,[23]; mean plasma terminal elimination half-life,~150 min
same,half-life,[23]; t1/2,96 min
